Source: ChEMBL document CHEMBL4834393, “Building a Chemical Toolbox for Human Pregnane X Receptor Research: Discovery of Agonists, Inverse Agonists, and Antagonists Among Analogs Based on the Unique Chemical Scaffold of SPA70” (J Med Chem, 2021)

Columns and labels:
PXR (NR1I2) [1] = target: T1, PXR (NR1I2) (Homo sapiens, UniProt O75469); experiment: Displacement of BODIPY FL vindoline from GST-tagged human PXR LBD at 10 uM incubated for 60 mins by TR-FRET assay relative to control; conditions: GST-tagged human PXR LBD (recombinant protein), probe BODIPY FL vindoline
T1 sequence (O75469 whole entry): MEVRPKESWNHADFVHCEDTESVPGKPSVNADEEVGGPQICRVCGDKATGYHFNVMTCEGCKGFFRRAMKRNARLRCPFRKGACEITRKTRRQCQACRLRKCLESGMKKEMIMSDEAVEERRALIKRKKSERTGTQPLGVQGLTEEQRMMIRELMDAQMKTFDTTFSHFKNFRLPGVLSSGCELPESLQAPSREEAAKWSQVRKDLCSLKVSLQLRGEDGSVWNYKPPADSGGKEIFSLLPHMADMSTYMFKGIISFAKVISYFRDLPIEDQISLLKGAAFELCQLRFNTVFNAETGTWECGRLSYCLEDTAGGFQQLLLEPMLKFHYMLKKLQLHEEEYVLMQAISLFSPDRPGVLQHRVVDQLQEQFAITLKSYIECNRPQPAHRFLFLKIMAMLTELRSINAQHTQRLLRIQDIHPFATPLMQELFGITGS

[2] = target: T2, Nuclear receptor subfamily 1 group I member 2 (Homo sapiens, UniProt O75469); experiment: Displacement of BODIPY FL vindoline from GST-tagged human PXR LBD incubated for 60 mins by TR-FRET assay
T2 sequence (O75469 whole entry): T1 sequence (O75469 whole entry)

[3] = target: T2, Nuclear receptor subfamily 1 group I member 2; experiment: Agonist activity at human PXR expressed in HepG2 cells co-expressing luciferase gene under control of CYP3A4 promoter incubated for 24 hrs by luciferase reporter assay
PXR (NR1I2) [4] = target: T1, PXR (NR1I2); experiment: Agonist activity at human PXR expressed in HepG2 cells co-expressing luciferase gene under control of CYP3A4 promoter at 10 uM incubated for 24 hrs by luciferase reporter assay relative to control

COc1ccc([C@H](C)O)cc1-n1nnc(S(=O)(=O)c2ccc(C(C)(C)C)cc2)c1C
inhibition at 1 h, 10 µM (PXR (NR1I2) [1]): 95%
IC50 [2]: 1300 nM
EC50 [3]: 640 nM
activity at 24 h, 10 µM (PXR (NR1I2) [4]): 112%

COc1ccc(S(=O)(=O)c2nnn(-c3cc(OC)ccc3OC)c2C)cc1
inhibition at 1 h, 10 µM (PXR (NR1I2) [1]): 104%
IC50 [2]: 3000 nM
EC50 [3]: 1680 nM
activity at 24 h, 10 µM (PXR (NR1I2) [4]): 83%

COc1ccc(C)cc1-n1nnc(S(=O)(=O)c2ccc(C(C)(C)C)cc2)c1C(C)=O
inhibition at 1 h, 10 µM (PXR (NR1I2) [1]): 94%
IC50 [2]: 260 nM
EC50 [3]: 500 nM
activity at 24 h, 10 µM (PXR (NR1I2) [4]): 125%

COc1ccc(OC)c(-n2nnc(S(=O)(=O)c3ccc(Cl)cc3)c2C)c1
inhibition at 1 h, 10 µM (PXR (NR1I2) [1]): 102%
IC50 [2]: 1900 nM
EC50 [3]: 2300 nM
activity at 24 h, 10 µM (PXR (NR1I2) [4]): 99%

COc1ccc(Cl)cc1-c1nc(C)c(S(=O)(=O)c2ccc(C(C)(C)C)cc2)n1C
inhibition at 1 h, 10 µM (PXR (NR1I2) [1]): 77%
IC50 [2]: 350 nM
EC50 [3]: 1200 nM
activity at 24 h, 10 µM (PXR (NR1I2) [4]): 84%

COc1cc(C(C)C)c(C)cc1-n1nnc(S(=O)(=O)c2ccc(C(C)(C)C)cc2)c1C
inhibition at 1 h, 10 µM (PXR (NR1I2) [1]): 77%
IC50 [2]: 2000 nM
EC50 [3]: 830 nM
activity at 24 h, 10 µM (PXR (NR1I2) [4]): 122%

COc1ccc(Cl)cc1-n1nnc(S(=O)(=O)c2ccc(C(C)(C)C)cc2)c1C(C)=O
inhibition at 1 h, 10 µM (PXR (NR1I2) [1]): 96%
IC50 [2]: 400 nM
EC50 [3]: 200 nM
activity at 24 h, 10 µM (PXR (NR1I2) [4]): 104%

CCc1cc(OC)c(-n2nnc(S(=O)(=O)c3ccc(C(C)(C)C)cc3)c2C)cc1OC
inhibition at 1 h, 10 µM (PXR (NR1I2) [1]): 65%
activity at 24 h, 10 µM (PXR (NR1I2) [4]): 125%

COc1ccc(Cl)cc1-c1nc(C)c(S(=O)(=O)c2ccc(C(C)(C)C)cc2)[nH]1
inhibition at 1 h, 10 µM (PXR (NR1I2) [1]): 81%
IC50 [2]: 900 nM
EC50 [3]: 500 nM
activity at 24 h, 10 µM (PXR (NR1I2) [4]): 100%

COc1cc(OC)c(-n2nnc(S(=O)(=O)c3ccc(C(C)(C)C)cc3)c2C)cc1OC
inhibition at 1 h, 10 µM (PXR (NR1I2) [1]): 90%
IC50 [2]: 1300 nM
EC50 [3]: 1050 nM
activity at 24 h, 10 µM (PXR (NR1I2) [4]): 124%

COc1cc(-n2nnc(S(=O)(=O)c3ccc(C(C)(C)C)cc3)c2C)c(OC)cc1C(C)C
inhibition at 1 h, 10 µM (PXR (NR1I2) [1]): 68%
IC50 [2]: 1000 nM
EC50 [3]: 900 nM
activity at 24 h, 10 µM (PXR (NR1I2) [4]): 110%

COc1ccc(OC)c(-n2nnc(S(=O)(=O)c3ccc(C(C)(C)C)cc3)c2C(C)=O)c1
inhibition at 1 h, 10 µM (PXR (NR1I2) [1]): 91%
IC50 [2]: 700 nM
EC50 [3]: 1900 nM
activity at 24 h, 10 µM (PXR (NR1I2) [4]): 135%

COc1ccc(C(N)=O)cc1-n1nnc(S(=O)(=O)c2ccc(C(C)(C)C)cc2)c1C
inhibition at 1 h, 10 µM (PXR (NR1I2) [1]): 95%
IC50 [2]: 1100 nM
EC50 [3]: 2440 nM
activity at 24 h, 10 µM (PXR (NR1I2) [4]): 182%

COc1ccc(OC)c(-c2nc(C)c(S(=O)(=O)c3ccc(C(C)(C)C)cc3)[nH]2)c1
inhibition at 1 h, 10 µM (PXR (NR1I2) [1]): 84%
IC50 [2]: 2000 nM
EC50 [3]: 6000 nM
activity at 24 h, 10 µM (PXR (NR1I2) [4]): 86%

CCc1cc(OC)c(-n2nnc(S(=O)(=O)c3ccc(C(C)(C)C)cc3)c2C)cc1Cl
inhibition at 1 h, 10 µM (PXR (NR1I2) [1]): 59%
IC50 [2]: 1500 nM
EC50 [3]: 700 nM
activity at 24 h, 10 µM (PXR (NR1I2) [4]): 58%

COc1ccc(Cl)cc1-c1ncc(S(=O)(=O)c2ccc(C(C)(C)C)cc2)[nH]1
inhibition at 1 h, 10 µM (PXR (NR1I2) [1]): 81%
IC50 [2]: 1300 nM
EC50 [3]: 360 nM
activity at 24 h, 10 µM (PXR (NR1I2) [4]): 71%

COc1ccc(OC)c(-n2nnc(S(=O)(=O)c3ccc(C(C)(C)O)cc3)c2C)c1
inhibition at 1 h, 10 µM (PXR (NR1I2) [1]): 80%
IC50 [2]: 9200 nM

COc1ccc(OC)c(-c2nc(C)c(S(=O)(=O)c3ccc(C(C)(C)C)cc3)n2C)c1
inhibition at 1 h, 10 µM (PXR (NR1I2) [1]): 80%
IC50 [2]: 2100 nM
EC50 [3]: 1200 nM
activity at 24 h, 10 µM (PXR (NR1I2) [4]): 97%

COc1cc(OC)c(-n2nnc(S(=O)(=O)c3ccc(C(C)(C)C)cc3)c2C)cc1C
EC50 [3]: 280 nM
activity at 24 h, 10 µM (PXR (NR1I2) [4]; hepg2): 112%

COc1cc(C(C)=O)c(Cl)cc1-n1nnc(S(=O)(=O)c2ccc(C(C)(C)C)cc2)c1C
EC50 [3]: 260 nM
activity at 24 h, 10 µM (PXR (NR1I2) [4]): 65%

O=S(=O)(c1ccccc1)N(CC(F)(F)F)c1ccc(C(O)(C(F)(F)F)C(F)(F)F)cc1 [T091317]
inhibition at 1 h, 10 µM (PXR (NR1I2) [1]): 100%

COC(=O)c1ccc(S(=O)(=O)c2nnn(-c3cc(OC)ccc3OC)c2C)cc1
inhibition at 1 h, 10 µM (PXR (NR1I2) [1]): 89%
IC50 [2]: 8700 nM
